Assays:
[1] = target: T1, HrBP1 (harpin-binding protein 1) (Nicotiana tabacum, UniProt Q5QJB2); assay: isothermal titration calorimetry; settings: pH 7.5, 25 °C, 20 mM Tris-HCl, 100 mM NaCl
T1 construct: full-length ORF (831 bp, 276 aa) in pET28a NdeI/XhoI, E. coli BL21(DE3), HisTrap purified, tag removal not described; about 30 kDa on SDS-PAGE, oligomer about 180 kDa by SEC

[2] = target: T1, HrBP1 (harpin-binding protein 1); assay: isothermal titration calorimetry
[3] = target: the molecule itself; assay: SEC; Superdex 200 10/300 GL, 4°C, 20 mM Tris-HCl, 100 mM NaCl, pH 7.5; mass standards 17-440 kDa; run without and after adding the small molecule Q-R (larger oligomer with Q-R)

Q: Which isothermal titration calorimetry [1] does the source give for `CCOP(=O)(OCC)C(Nc1nc2c(C)cccc2s1)c1ccccc1F` (stereo not drawn) [dufulin] here?
A: weak binding occurred between the dufulin and HrBP1 protein

Q: With `Cc1cccc2sc(N[C@@H](c3cccs3)P(=O)(Oc3ccccc3)Oc3ccccc3)nc12` [Q-R, (R)-diphenyl-1-(4-methylbenzothiazole-2-amino)-1-(thiphene-2-yl)-methylphosphonate] as the molecule, how does the Kd [2] read?
A: 1190 nM

B1: harpin-binding protein 1 (HrBP1) from Nicotiana tabacum (natural protein, UniProt Q5QJB2 1-276, looked up)
chain: MASLLQYSTLPLSNNHCSSSLPSLTCHLSKRSNRNTQKLLEKKKYHIKKSLICQSGIDELAFIELPGTKEAKAELIGSLKLKLLSAVSGLNRGLAASEEDLKKADAAAKELESCAGAVDLSADLDKLQGRWKLIYSSAFSGRTLGGSRPGPPTGRLLPITLGQVFQRIDVLSKDFDNIVELELGAPWPLPPAELTATLAHKFELIGSSTIKITFEKTTVKTTGILSQLPPFEVPRIPDQLRPPSNTGSGEFEVTYIDSDTRVTRGDRGELRVFVIS
notes: full-length gene of 831 bp, 276 amino acids, cloned between NdeI and XhoI of pET28a; tryptic peptides matched UniProt Q5QJB2; Removal of the tag is not described; also called HrBP1 recombinant protein; source: E. coli BL21(DE3), pET28a-HrBP1, purified (HisTrap column, desalting column, ultrafiltration)
Q: Does B1 bind [3]?
A: binds

Source: PMC8044911, “Research on the Interaction Mechanism Between α Mino-Phosphonate Derivative Q-R and Harpin-Binding Protein 1 in Tobacco (Nicotiana tabacum) Plants” (Frontiers in Microbiology, 2021)
